Measured values reported in patent US20170304336A1, “COMBINATION” (priority 2014, published 2017).
Several values for one entry are separate records, joined by “and”; a condition that tells them apart may be missing. Equal values may be shown once.

Key:
[1] = tested on: experimental rat hypercholesterolemia model; experiment: Biochemical blood analysis (drug toxicity parameters) in rat hypercholesterolemia model; assay type: in vivo, male rats of Wistar line
Procedure: (§1) Evaluation of hypocholesterolemic efficacy and safety of pharmaceutical combination was performed in vivo in experimental rat hypercholesterolemia model.
(§2) For 90 days the studied animals received hypercholesterol diet for pathology induction. The diet included Cholesterol+Cholic acid+Overheated fats (deep fat).
(§3) Drugs were introduced intragastrically with an esophageal bougie daily on Day 31-90 of the study at the same time of day.
Biochemical parameters and activity of serum enzymes (aspartate- and alanine aminotransferase, creatine phosphokinase, urea, serum amylase, total bilirubin, direct bilirubin, indirect bilirubin, serum glucose, cations K^+, Na^+).
1.0-1.84 ml blood samples for the study of biochemical parameters were taken from tail vein of rats. Blood samples were taken from the animals after 14-15-hour's fasting at same time of day (9.00-11.00). For biochemical parameters tests a Biochemical Analyzer A-25 (Biosystems, Spain) was used.
Vol. 4. pp. 1794-1798; Pearlman F C and Lee R T Y. Clin Chem 1974, 20, 447-453; Zoppi F et al, Peracino A., Fenili D., Marcovina S. and Ramella C. Giorn It Chim Cl. […] C. et al Clin Chem. 1974. Vol. 20. pp. 470-475; and in Meiattini F., et al, Clin Chem. 1978. Vol. 24. pp. 2161-2165 (total cholesterol); Warnick G R et al. Clin Chem 2001, 47, 1579-96 (HDL/LDL); Bucolo G and David H. Clin Chem. 1973.-Vol. 19. pp. 476-482; and in Fossati P. and, Prencipe L., Clin Chem. 1982. Vol. 28. pp. 2077-2080 (triglycerides); Trinder P. Ann Clin Biochem. 1969. Vol. 6. pp. 24-27).

[2] = tested on: experimental rat hypercholesterolemia model; experiment: Lipid spectrum of blood in experimental rat hypercholesterolemia model; assay type: in vivo, male rats of Wistar line
Procedure: The animals used were male rats of Wistar line. […] The proposed model using rats as the experimental animals is a reproducible standard model for evaluation of hypocholesterolemic effect.
as §1, §2
For 90 days the animals received the said ration ad libitum (30 g feed per animal). Development of hypercholesterolemia in animals was evaluated based on changes in lipid spectrum parameters on Day 30 of the study.
as §3
Biochemical parameters and activity of blood serum enzymes (total cholesterol (CHS), LDL-CHS, HDL-CHS, triglycerides.
1.0-1.84 ml blood samples for the study of biochemical parameters were taken from tail vein of rats. Blood samples were taken from the animals after 14-15-hour's fasting at same time of day (9.00-11.00). For biochemical parameters tests a Biochemical Analyzer A-25 (Biosystems, Spain) was used. […]

[3] = Mass coefficients of organs (pancreas, liver, kidneys) of rats; assay type: in vivo, male rats of Wistar line; conditions: M ± m; for weight coefficient, Kidneys / weight coefficient, Liver: in %
Procedure: To calculate mass coefficients the pancreas, liver and kidneys of the animals were extracted. The organs were weighed and the mass coefficients were calculated by the following formula:
Mass coefficient=(organ weight/animal body weight)×100%

[4] = Mass coefficients of liver and pancreas of rabbits; assay type: in vivo, male rabbits of Californian breed; conditions: for pancreatic mass coefficients relative to the control group: rosuvastatin 40 mg, AGA 100 mg
[5] = Dynamics of body weight of rabbits (Schemes A and B); assay type: in vivo, male rabbits of Californian breed; conditions: for Body weight: Scheme A, M ± SEM
From the text: The animals used in this experiment were involved reproductive male rabbits of Californian breed. 144 rabbits were used. The weight of the animals at the beginning of the trial ranged from 2.5 to 3 kg; the animals were 8 weeks old. Before the study the laboratory animals were contained for 27 and for 37 days in the separate coops for adaptation. During this period, clinical condition of animals was controlled every day by visual inspection. The criteria of the inclusion of animals in the experiment were health and body weight.
The introduction of drugs under two schemes was used to determine the mechanism of action of the studied drugs and the impact on the different stages of atherosclerosis.
Cholesterol administered daily in an oil solution at 0.3 g/kg of animal body weight, one time, 4 hours after drug administration. Cholesterol was dissolved in hot sunflower oil and administered to the animals through noninvasive probe into the stomach. The duration of administration amounted cholesterol from 1 to 90 days in subgroup A and 1 to 120 days in subgroup B. 2. After 30 days from the initiation of administration of cholesterol vitamin D3 (cholecalciferol) in a dose of 0.256 ml/kg was added to the diet of animals to enhance aortic lipidosis. Cholecalciferol was administered intragastrically via a probe from 31 till 60 days (Scheme A and B). […] In order to gain atherosclerotic lesions in aorta and atherosclerosis induction time reduction the animals were administered a dose of epinephrineequal to 0.04 mg/kg intravenously since 31 till 60 every five days (Scheme A and B).
Animal body weight was measured in accordance with standard procedures prior to the study, then—weekly (for calculating the volume of administration of the test compound and the reference drug) and immediately before euthanasia (on days 60 and 120)—to calculate the weight gain.
The administration was carried out intragastrically in accordance with standard procedures using atraumatic probe according to two treatment regimens every day at the same time.

[6] = Stability of statin/glycyrrhizic acid molecular complexes by content of glycyrrhizic acid; assay type: physicochemical; conditions: interval between testing points 7 months; European Pharmacopoeia 7.0 methodology
Procedure: Stability of these complexes was determined on the basis of quantitative content of glycyrrhizic acid (in percentage form). The interval between the testing points was 7 months. The testing methodology was taken from European Pharmacopoeia 7.0. […] This decline is related both to the conditions of synthesis (maximum decline observed for liquid-phase synthesis) and to the properties of the active ingredient itself.

[7] = Day 30 of treatment (Day 60 of study), dose 10 mg
[8] = blood, Day 60 of the treatment (Day 90 of the study), RV + AGA 10 + 108 mg, RV 10 mg, AGA 108 mg
[9] = Day 30 of treatment (Day 60 of study), dose 20 mg
[10] = Day 60 of treatment (Day 90 of study), dose 10 mg
[11] = Day 60 of treatment (Day 90 of study), dose 20 mg
[12] = RV + AGA 10 + 108 mg, RV 10 mg, AGA 108 mg
[13] = Day 30 of treatment (Day 60 of study), dose 90 mg
[14] = blood, Day 60 of the treatment (Day 90 of the study), AV + GA 10 + 90 mg, AV 10 mg, GA 90 mg
[15] = blood, Day 60 of the treatment (Day 90 of the study), FV + GA 80 + 90 mg, FV 80 mg, GA 90 mg
[16] = Day 60 of treatment (Day 90 of study), dose 90 mg
[17] = AV + GA 10 + 90 mg, AV 20 mg, GA 90 mg
[18] = FV + GA 80 + 90 mg, FV 80 mg, GA 90 mg

CC(C)c1nc(N(C)S(C)(=O)=O)nc(-c2ccc(F)cc2)c1/C=C/[C@@H](O)C[C@@H](O)CC(=O)O [RV, (3R,5S,6E)-7-[4-(4-fluorophenyl)-2-(N-methylmethanesulfonamido)-6-(propan-2-yl)pyrimidin-5-yl]-3,5-dihydroxyhept-6-enoic acid]
ALT [1, 7]: 179 U/l
AST [1, 7]: 182 U/l
Amylase [1, 7]: 641 U/l
Bilirubin direct [1, 7]: 2.7 mg/dL
Bilirubin indirect [1, 7]: 2.1 mg/dL
Bilirubin total [1, 7]: 4.6 mg/dL
CPK [1, 7]: 702 U/l
Glucose [1, 7]: 158 mg/dL
Potassium [1, 7]: 4.3 mM
Sodium [1, 7]: 128 mmol
Urea [1, 7]: 7.2 mmol/L
ALT [1, 8]: 139 U/l
AST [1, 8]: 190 U/l
Amylase [1, 8]: 584 U/l
Bilirubin direct [1, 8]: 2.9 mg/dL
Bilirubin indirect [1, 8]: 1.7 mg/dL
Bilirubin total [1, 8]: 4.8 mg/dL
CPK [1, 8]: 597 U/l
Glucose [1, 8]: 130 mg/dL
Potassium [1, 8]: 2.2 mM
Sodium [1, 8]: 130 mmol
Urea [1, 8]: 6.4 mmol/L
HDL CHS [2, 7]: 0.81 ± 0.05 mmol/L
LDL CHS [2, 7]: 3.23 ± 0.21 mmol/L
TG [2, 7]: 1.21 ± 0.10 mmol/L
Total CHS [2, 7]: 4.0 ± 0.2 mmol/L
HDL CHS [2, 9]: 0.9 ± 0.03 mmol/L
LDL CHS [2, 9]: 3.00 ± 0.10 mmol/L
TG [2, 9]: 1.27 ± 0.03 mmol/L
Total CHS [2, 9]: 3.6 ± 0.1 mmol/L
HDL CHS [2, 10]: 0.81 ± 0.05 mmol/L
LDL CHS [2, 10]: 2.90 ± 0.21 mmol/L
TG [2, 10]: 1.21 ± 0.10 mmol/L
Total CHS [2, 10]: 3.7 ± 0.2 mmol/L
HDL CHS [2, 11]: 0.91 ± 0.03 mmol/L
LDL CHS [2, 11]: 2.72 ± 0.20 mmol/L
TG [2, 11]: 1.29 ± 0.03 mmol/L
Total CHS [2, 11]: 3.3 ± 0.1 mmol/L
weight coefficient, Pancreas [3, 12]: 0.35 ± 0.04
weight coefficient, Kidneys [3, 12]: 0.75 ± 0.03
weight coefficient, Liver [3, 12]: 4.42 ± 0.11
Mass ratios, M ± SEM, Liver ([4]; Scheme A, dose 20 mg): 3.8 ± 0.2
Mass ratios, M ± SEM, Pancreas ([4]; Scheme A, dose 20 mg): 0.07 ± 0.006
Mass ratios, M ± SEM, Liver ([4]; Scheme A, dose 40 mg): 4.0 ± 0.1
Mass ratios, M ± SEM, Pancreas ([4]; Scheme A, dose 40 mg): 0.09 ± 0.004
pancreatic mass coefficients relative to the control group ([4]; Scheme A): significant increase
Mass ratios, M ± SEM, Liver ([4]; Scheme B, dose 20 mg): 3.8 ± 0.2
Mass ratios, M ± SEM, Pancreas ([4]; Scheme B, dose 20 mg): 0.09 ± 0.004^12
pancreatic mass coefficients relative to the control group ([4]; Scheme B): statistically significant increase
Body weight ([5]; Day 0 (Before the study), dose group 20 mg): 2874 ± 165 g
Body weight ([5]; Day 0 (Before the study), dose group 40 mg): 2787 ± 141 g
Body weight ([5]; Day 28 (in the setting of pathology without treatment), dose group 20 mg): 3350 ± 157 g
Body weight ([5]; Day 28 (in the setting of pathology without treatment), dose group 40 mg): 3428 ± 146 g
Body weight ([5]; Day 90 (in the setting of pathology with treatment), dose 20 mg): 4340 ± 53 g
Body weight ([5]; Day 90 (in the setting of pathology with treatment), dose 40 mg): 4348 ± 66 g
Body weight, M ± SEM, Day 120 (in the setting of pathology with treatment) ([5]; Scheme B, dose 20 mg): 4699 ± 131^1 g
Body weight, M ± SEM, Day 0 (Before the study) ([5]; Scheme B, dose 20 mg, baseline): 2665 ± 85 g
Body weight, M ± SEM, Day 56 (in the setting of pathology without treatment) ([5]; Scheme B, dose 20 mg, before treatment): 3479 ± 106 g

CC1(C)[C@@H](O[C@H]2O[C@H](C(=O)O)[C@@H](O)[C@H](O)[C@H]2O[C@@H]2O[C@H](C(=O)O)[C@@H](O)[C@H](O)[C@H]2O)CC[C@]2(C)[C@H]3C(=O)C=C4[C@@H]5C[C@@](C)(C(=O)O)CC[C@]5(C)CC[C@@]4(C)[C@]3(C)CC[C@@H]12 [GA, (3β,18α)-30-hydroxy-11,30-dioxoolean-12-en-3-yl 2-O-β-D-glucopyranuronosyl-β-D-glucopyranosiduronic acid]
ALT [1, 13]: 100 U/l
AST [1, 13]: 125 U/l and 132 U/l
Amylase [1, 13]: 618 U/l
Bilirubin direct [1, 13]: 2.2 mg/dL
Bilirubin indirect [1, 13]: 1.4 mg/dL
Bilirubin total [1, 13]: 4.5 mg/dL
CPK [1, 13]: 320 U/l
Glucose [1, 13]: 111 mg/dL
Potassium [1, 13]: 2.2 mM
Sodium [1, 13]: 135 mmol
Urea [1, 13]: 5.7 mmol/L
ALT [1, 14]: 103 U/l
AST [1, 14]: 115 U/l
Amylase [1, 14]: 600 U/l
Bilirubin direct [1, 14]: 2.2 mg/dL
Bilirubin indirect [1, 14]: 1.8 mg/dL
Bilirubin total [1, 14]: 4.3 mg/dL
CPK [1, 14]: 233 U/l
Glucose [1, 14]: 116 mg/dL
Potassium [1, 14]: 3.1 mM
Sodium [1, 14]: 123 mmol
Urea [1, 14]: 5.0 mmol/L
ALT [1, 15]: 103 U/l
AST [1, 15]: 121 U/l
Amylase [1, 15]: 600 U/l
Bilirubin direct [1, 15]: 2.2 mg/dL
Bilirubin indirect [1, 15]: 1.8 mg/dL
Bilirubin total [1, 15]: 4.3 mg/dL
CPK [1, 15]: 233 U/l
Glucose [1, 15]: 116 mg/dL
Potassium [1, 15]: 3.1 mM
Sodium [1, 15]: 123 mmol
Urea [1, 15]: 5.0 mmol/L
HDL CHS [2, 13]: 0.63 ± 0.04 mmol/L
LDL CHS [2, 13]: 4.00 ± 0.3 mmol/L
TG [2, 13]: 1.6 ± 0.10 mmol/L
Total CHS [2, 13]: 5.2 ± 0.5 mmol/L
HDL CHS [2, 16]: 0.73 ± 0.04 mmol/L
LDL CHS [2, 16]: 3.90 ± 0.3 mmol/L
TG [2, 16]: 1.6 ± 0.10 mmol/L
Total CHS [2, 16]: 4.5 ± 0.5 mmol/L
weight coefficient, Pancreas [3, 17]: 0.20 ± 0.01^2
weight coefficient, Kidneys [3, 17]: 0.80 ± 0.01
weight coefficient, Liver [3, 17]: 4.41 ± 0.09
weight coefficient, Pancreas [3, 18]: 0.23 ± 0.01^2
weight coefficient, Kidneys [3, 18]: 0.80 ± 0.03
weight coefficient, Liver [3, 18]: 4.42 ± 0.09
stability with regard to time (content of glycyrrhizic acid) [6]: unstable
